Data reported in ChEMBL document CHEMBL2384972, “Tricyclic Pyrimidines As Inhibitors of DYRK1A/DYRK1B As Potential Treatment for Down's Syndrome or Alzheimer's Disease” (ACS Med Chem Lett, 2013).

Assays:
[1] = biological target: Dual specificity tyrosine-phosphorylation-regulated kinase 1A (Homo sapiens, UniProt Q13627); assay: Inhibition of recombinant DYRK1A (unknown origin) after 120 mins in presence of [33P]-ATP
[2] = biological target: Dual specificity tyrosine-phosphorylation-regulated kinase 1B (Homo sapiens, UniProt Q9Y463); assay: Inhibition of recombinant DYRK1B (unknown origin) after 120 mins in presence of [33P]-ATP
Dual specificity tyrosine-phosphorylation-regulated kinase 1B, sequence (Q9Y463 whole entry): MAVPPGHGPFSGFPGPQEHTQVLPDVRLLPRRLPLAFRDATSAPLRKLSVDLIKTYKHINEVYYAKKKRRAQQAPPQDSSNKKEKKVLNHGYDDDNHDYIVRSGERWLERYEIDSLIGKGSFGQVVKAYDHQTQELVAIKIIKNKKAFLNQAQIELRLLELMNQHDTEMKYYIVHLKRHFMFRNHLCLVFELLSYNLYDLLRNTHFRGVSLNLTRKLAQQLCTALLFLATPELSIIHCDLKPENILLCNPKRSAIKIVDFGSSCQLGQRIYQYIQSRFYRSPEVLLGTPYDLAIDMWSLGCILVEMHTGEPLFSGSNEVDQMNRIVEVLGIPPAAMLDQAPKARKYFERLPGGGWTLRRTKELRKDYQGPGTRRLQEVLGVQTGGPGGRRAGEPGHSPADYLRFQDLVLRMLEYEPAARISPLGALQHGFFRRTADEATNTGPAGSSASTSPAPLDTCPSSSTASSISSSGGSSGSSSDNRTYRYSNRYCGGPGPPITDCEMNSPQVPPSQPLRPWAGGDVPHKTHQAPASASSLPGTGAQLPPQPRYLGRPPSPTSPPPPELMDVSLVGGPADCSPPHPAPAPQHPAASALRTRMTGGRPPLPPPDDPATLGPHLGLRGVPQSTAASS

IC50 [1] [nM] | IC50 [2] [nM] | Structure (SMILES)
0.16 | 0.24 | COC(=N)c1nc2ccc3ncnc(Nc4ccc(Br)cc4F)c3c2s1
3.6 | 6.55 | COC(=N)c1nc2ccc3ncnc(Nc4ccc(F)cc4Br)c3c2s1
